Data published in article PMC8887546, “Design and Synthesis of Brain Penetrant Glycopeptide Analogues of PACAP With Neuroprotective Potential for Traumatic Brain Injury and Parkinsonism” (Frontiers in drug discovery, 2022).

Tests used:
[1] = tested on: C57BL/6 mice, diffuse TBI; assay: Rotarod after TBI; type: in vivo, mouse; conditions: 10 mg/kg i.p. 30 min prior to TBI, 2, 5 and 7 DPI
Description: 30 min prior to TBI or sham injury, mice were randomly assigned to a therapeutic group and received an intraperitoneal injection of 2LS80Mel (10 mg/kg) or sterile saline (0.25 ml). Groups were as follows: TBI-2LS80Mel n = 17; TBI-vehicle n = 17; sham n = 22 (vehicle n = 11, 2LS80Mel n = 11).
For injury induction 24 h post-surgery, mice were re-anesthetized with 5% isoflurane delivered for 3 min. The cap was removed from the injury-hub assembly and the dura was visually inspected through the hub to ensure it was intact with no debris. […] Injured mice were monitored for presence of a forearm fencing response and righting reflex times were recorded as indicators of injury severity ([Hosseini and Lifshitz, 2009]). […] After spontaneously righting, mice were placed in a heated recovery cage and monitored until they were ambulatory (approximately 5–15 min) before being returned to their piezoelectric sleep cage (see below). […]
Sensorimotor function was assessed using the Rotor-Rod system (San Diego Instruments) as we have previously published ([Rowe et al., 2018]). […] Following acclimation, mice were trained over three consecutive days prior to surgery/injury and the last training session was recorded as baseline. […]

human VPAC2 receptor = target: T1, human VPAC2 receptor (Homo sapiens, UniProt P41587); assay: cAMP stimulation in CHO cells expressing VPAC2; type: cell-based
T1 construct: expressed in transfected cells; host or cells: CHO cells (G418 selection)
T1 sequence (P41587 24-438): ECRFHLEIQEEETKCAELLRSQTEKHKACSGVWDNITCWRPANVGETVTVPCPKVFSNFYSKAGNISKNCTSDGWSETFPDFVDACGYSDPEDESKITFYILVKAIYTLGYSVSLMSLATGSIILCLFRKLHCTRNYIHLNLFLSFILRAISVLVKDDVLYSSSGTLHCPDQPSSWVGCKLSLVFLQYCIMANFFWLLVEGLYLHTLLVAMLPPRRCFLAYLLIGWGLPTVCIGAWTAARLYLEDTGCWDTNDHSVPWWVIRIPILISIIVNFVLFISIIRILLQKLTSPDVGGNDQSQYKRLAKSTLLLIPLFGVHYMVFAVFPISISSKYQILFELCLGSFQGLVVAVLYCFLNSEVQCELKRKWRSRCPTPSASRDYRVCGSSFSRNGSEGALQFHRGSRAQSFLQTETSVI
Summary of the method: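 Serum-starved CHO cells expressing human receptors were pre-treated 20 min with 500 μM IBMX, then exposed to agonist concentration curves for 10 min in 500 μM IBMX. cAMP quantified by competition with bovine PKA and ^3H-cAMP (1 h, room temperature), scintillation read.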

SMILES	Rotarod latency to fall [1]	EC50 (human VPAC2 receptor) [nM]	Emax (human VPAC2 receptor; CHO) [%]	Receptor selectivity ratio VPAC2/PAC1 (human VPAC2 receptor; ratio of cAMP EC50 values)	Receptor selectivity ratio VPAC2/VPAC1 (human VPAC2 receptor; ratio of cAMP EC50 values)
CC[C@H](C)[C@H](NC(=O)CNC(=O)[C@H](CC(=O)O)NC(=O)[C@H](CO)NC(=O)[C@@H](N)Cc1c[nH]cn1)C(=O)N[C@@H](Cc1ccccc1)C(=O)N[C@H](C(=O)N[C@@H](CC(=O)O)C(=O)N[C@@H](CO)C(=O)N[C@@H](Cc1ccc(O)cc1)C(=O)N[C@@H](CO)C(=O)N[C@@H](CCCNC(=N)N)C(=O)N[C@@H](Cc1ccc(O)cc1)C(=O)N[C@@H](CCCNC(=N)N)C(=O)N[C@@H](CCCCN)C(=O)N[C@@H](CCC(N)=O)C(=O)N[C@@H](CC(C)C)C(=O)N[C@@H](C)C(=O)N[C@H](C(=O)N[C@@H](CCCCN)C(=O)N[C@@H](CCCCN)C(=O)N[C@@H](Cc1ccc(O)cc1)C(=O)N[C@@H](CC(C)C)C(=O)N[C@@H](C)C(=O)N[C@@H](C)C(=O)N[C@H](C(=O)N[C@@H](CC(C)C)C(=O)N[C@@H](CO[C@@H]1O[C@H](CO[C@H]2O[C@H](CO)[C@H](O)[C@H](O)[C@H]2O)[C@@H](O)[C@H](O)[C@H]1O)C(N)=O)C(C)C)C(C)C)[C@@H](C)O [Compound 2LS80Mel]	comparable to uninjured shams at all time points post-injury				
[2H]C([2H])([2H])C([2H])(C([2H])([2H])[2H])[C@]([2H])(NC(=O)[C@H](C)NC(=O)[C@H](C)NC(=O)[C@H](CC(C)C)NC(=O)[C@H](Cc1ccc(O)cc1)NC(=O)[C@H](CCCCN)NC(=O)[C@H](CCCCN)NC(=O)[C@@]([2H])(NC(=O)[C@H](C)NC(=O)[C@H](CC(C)C)NC(=O)[C@H](CCC(N)=O)NC(=O)[C@H](CCCCN)NC(=O)[C@H](CCCNC(=N)N)NC(=O)[C@H](Cc1ccc(O)cc1)NC(=O)[C@H](CCCNC(=N)N)NC(=O)[C@H](CO)NC(=O)[C@H](Cc1ccc(O)cc1)NC(=O)[C@H](CO)NC(=O)[C@H](CC(=O)O)NC(=O)[C@@H](NC(=O)[C@H](Cc1ccccc1)NC(=O)[C@@H](NC(=O)CNC(=O)[C@H](CC(=O)O)NC(=O)[C@H](CO)NC(=O)[C@@H](N)Cc1c[nH]cn1)[C@@H](C)CC)[C@@H](C)O)C([2H])(C([2H])([2H])[2H])C([2H])([2H])[2H])C(=O)N[C@@H](CC(C)C)C(=O)N[C@@H](CO[C@@H]1O[C@H](CO)[C@@H](O[C@@H]2O[C@H](CO)[C@H](O)[C@H](O)[C@H]2O)[C@H](O)[C@H]1O)C(N)=O [Compound 2LS98Lac]		193	100	268.06	428.89
